Read-outs that look alike come from different tables or passages of the source.

The subject of data set [1] is HepG2 cells. Kind of data set: glucose production, G6P expression and AMPK phosphorylation. In kind it is cell-based, human. The settings on record: for expression of glucose 6-phosphatase (G6P) / glucose production: HepG2, 0.1 μM pyrvinium, 10 μM YW1149; for phosphorylation of AMPK: HepG2 cells.
Data set [2] relates to HepG2 cells. Kind of data set: expression of Wnt pathway proteins. In kind it is cell-based, human. The settings on record: FIG. 3. As to the method:
HepG2 cells were treated by YW1149 (vehicle, 0.1, 1 μM).

In data set [3] the test system is C57BL/6 mice on high-fat diet. The settings on record: intraperitoneal. From the text: C57BL/6 mice (n=6/group) were put either on high-fat (HF) or normal chow (NC) diet.
Data set [4] can be described thus: metabolic stability, substrate depletion in liver S9 fraction. In kind it is in vitro ADME, mouse. The settings on record: 37 degrees, after one hour. As to the method:
(§1) FIGS. 5A and 5B illustrate the metabolic stability of YW1149. S9 fraction from mouse liver tissues (FIG. 5A) and mouse plasma samples (FIG. 5B) were mixed with YW1149 and incubated at 37 degrees, respectively. *P<0.05 as compared to time 0.
(§2) The metabolic stability of these compounds was then estimated using YW1149 as a prototypical compound, with in vitro substrate depletion in mouse liver tissue S9 fraction as previously described (Jones and Houston, 2004).

The next data set deals with primary hepatocytes. Kind of data set: glucose production in primary hepatocytes. In kind it is cell-based. From the text: In light of this evidence, a class of triazole-based inhibitors were synthesized and tested, as described herein.
For a further data set, the system named is HEK293 cells. Kind of data set: cytotoxicity, Cell Counting Kit-8 colorimetric assay. The settings on record: Homo sapiens, HEK293, read-out: anti-proliferation IC50. A general note: Tetrazolium assays rely on reduction of a dye to a coloured formazan, in cell work by metabolically active cells.
A short description of the next data set: plasma stability. The settings on record: mouse plasma, 37 degrees. In kind it is in vitro ADME. How it is done: as §1, §2
A further data set relates to Wnt/β-catenin pathway. Kind of data set: dual-luciferase TCF/LEF reporter assay, LiCl-activated, HEK293 cells. In kind it is cell-based. The settings on record: Homo sapiens; for activity at 1 µM: HEK293, 24 h, At 1 μM concentration, remaining Wnt signaling activity, read-out: RLU % (Relative Light Units in reporter gene assays); for IC50: HEK293. How it is done: Lithium chloride (LiCl), which has been previously established as an activator of the Wnt/β-catenin pathway through its direct and indirect effects on GSK3β was used for pathway activation. The inhibition of the Wnt/β-catenin pathway by a compound may be determined after its incubation with cells for 24 hours.
The assay provided herein is a dual-luciferase assay to measure Wnt/β-catenin pathway activation using a TCF/LEF responsive reporter construct similar to that described previously (Thorne et al., 2010).
For orientation: Reporter assays use an easily measured gene product as a stand-in for the process of interest.

The nature of the next data set: in vivo. From the text:
Representative data from each group is shown.
Blood samples were collected at multiple time points. […] Ultra-performance liquid chromatography system with a triple quadruple detector (UPLC/TQD) was used for compound quantitation.

In the next data set the test system is SW480 cells. Kind of data set: Western blot of Wnt signaling proteins. Type of data set: cell-based, human. The settings on record: 48 h. As to the method:
Using a Wester Blot, compounds YW2013 and YW2123 were tested in SW480 cells to determine their effect on the expression of Axin-2, β-catenin, and c-myc.
Western Blot: 1×10^6 Cells of SW480 cells were seeded into 6-well plates overnight. A concentration of 3, 10, 30 μM/L YW2013 and 3, 10 μM/L YW2123 was added after 24 h, medium with 1‰ DMSO was used as the control. Cells were exposed to treatment for 48 h. The dishes was washed twice using precold PBS and 100 μL of RIPA then added. After incubating plates on ice for 15 min, cells were scraped carefully and centrifuged for 10 minutes at 14,000 g at 4° C. immediately. The remaining supernatant and lysates were maintained at −70° C. A Bio-Rad protein assay kit (500-0002) was used to quantitate the cell lysates. The concentration was adjusted to 2 mg/ml. A ratio of 1:1 2× loading buffer was added and the samples were denatured by boiling. Protein samples were separated on 4-15% SDS-polyacrylamide gel (SDS-PAGE) and transferred onto the PVDF membranes (Millipore). Immune complexes were formed by incubation of the proteins with primary antibody β-catenin, c-myc, Axin-2, and GAPDH at 4° C. overnight. A second antibody with horseradish peroxidase (HRP, sigma) conjugated was used then. Blots were developed by enhanced chemiluminescence (Thermo).
On the technique in general: Immunoblotting shows a protein as a band on a membrane.

For data set [5], the system named is WiDr, SW620, HT29, HEK_LTV, and T84 cell lines. Kind of data set: cell proliferation and growth inhibition assay (CCK-8), cell line panel. In kind it is cell-based, human. The settings on record: 72 h, FIG. 12. As to the method: Cell Proliferation and Growth Inhibition Assay. HT-29, HCT-116, WiDr, SW620, SW480, T84, A549, MCF-7, HepG2, Hela cells were cultured in respective growth medium. Cells of log phase were used. 3000-5000 cells/well were seeded in 96-well plates with a 100 μL volume. After 24 h, Compounds were dissolved to […] with DMSO, and a 3-fold serial dilution of the compounds from 5×10^−5 M to […] was performed. 2 μL of compound solution was added to 998 μL of growth medium, the mixture was vortexed sufficiently. 100 μL of the mixture was correspondingly added to the 96-well plate. 2 μL DMSO instead of compound solution was used as the 0% inhibitor control. After coincubation for 72 h, the old medium was removed and 100 μL of 10% CCK-8 in culture medium was added. 2 h later the plates were read in the microplate reader (Bio-Rad) at 450 nm. The data was calculated using Graph Pad Prism version 5.0. The IC50 were fitted using a nonlinear regression model with a sigmoidal dose response.

The next data set has as its system HT-29 cells. Kind of data set: colony formation assay. The settings on record: 0-30 μM, 2 weeks. Type of data set: cell-based, human. How it is done: Colony Formation Assay. HT-29 and SW620, SW480 cells were seeded into 6-well dishes with the medium containing 0, 1, 3, 10, 30 μM/L of YW2013 or YW2044, 500 cells/well. After 2 weeks, cells were fixed with 4% paraformaldehyde solution and stained with 0.5% crystal violet for 1 h at room temperature. The images of colonies were captured by microscopy.

In a further data set the test system is SW620 cells. Kind of data set: quantitative real-time RT-PCR of Wnt regulated genes. Type of data set: cell-based, human. As to the method:
Quantitative Real-time RT-PCR. The total RNA extracted from the cells using TRIzol (Invitrogen) and 2 μg was reverse transcribed in a 20-μl volume system (QuantiTect Reverse Transcription Kit (Qiagen)) for quantitative PCR assays. SYBR green quantitative real-time PCR analyses were carried out using gene-specific primers (working concentration at 250 nM) in StepOnePlus real time PCR system (Applied Biosystems, AB), using the housekeeping gene GAPDH as an internal control. The PCR running procedure was as follows: 4 min denaturing at 95° C., followed by 40 cycles of 30 seconds of denaturing at 95° C. and then annealing and extension at 60° C. for 1 min.

Data set [6] concerns C57BL/6 mice on high-fat diet. Kind of data set: YW1128 in high-fat diet mice (liver histology, IPGTT, body weight). Type of data set: in vivo. As to the method:
Mice were treated with YW1128 and representative liver histology was observed through H&E staining. C57BL/6 mice were placed on a high-fat diet. Seven weeks later (week 0), the mice received either vehicle or YW1128 by IP injection for 11 weeks. Regarding treatment with YW1128, the mice were initially treated at a dose of 10 mg/kg/2 days, which was increased to 40 mg/kg/2 days from week 8. The mice were then euthanized at the end of 11 weeks. Liver histology for vehicle (FIGS. 33A and 33B) and YW1128 (FIGS. 33C and 33D) was examined by H&E staining.
An intraperitoneal glucose tolerance test (IPGTT) was conducted on high-fat diet (HFD) groups at the end of the study. C57BL/6 mice (n=3-4 per group) were put on a high fat diet. Seven weeks later (week 0), the mice received either vehicle or YW1128 by IP injection for 11 weeks. Regarding the treatment with YW1128, the mice were initially treated at a dose of 10 mg/kg/2 days, which was increased to 40 mg/kg/2 days from week 8. FIG. 34A describes the glucose levels at up to 120 minutes post-injection at week 0. FIG. 34B describes the glucose levels at up to 120 minutes post-injection at week 11, where *P<0.05 and **P<0.01, compared to the […].
The effect of YW1128 on body weight was also observed in mice having normal diets (NC) and those having high-fat (HF) diets. C57BL/6 mice (n=3-4 per group) were put on either an HF diet or an NC diet. Seven weeks later, the mice received either YW1128 or vehicle by IP injection. Regarding the treatment with YW1128, the mice were treated at a dose of 40 mg/kg/2 days for seven weeks. The results of such study are shown in FIG. 35, where *P<0.05 for the comparison between HF-vehicle and the other three groups.

For data set [7], the system named is C57BL/6 mice on Western high-fat diet. Kind of data set: YW1128 on high-fat diet-induced steatosis, liver protein analysis. In kind it is in vivo. The settings on record: I.P. 40 mg/kg/2 days, 11 weeks. From the text:
FIGS. 36A to 36D illustrate the effect of YW1128 on a high-fat diet (HFD)-induced steatosis. FIG. 36A illustrates representative liver histology by H&E staining. FIG. 36B illustrates an intraperitoneal glucose tolerance test (IPGTT) performed at the end of a study. FIG. 36C illustrates body weight monitoring performed during the treatment.
C57BL/6 mice (n=7/group) were put on a Western high-fat diet (HFD) or normal chow diet (NCD). Seven weeks later, the mice received either vehicle or YW1128 by I.P., 40 mg/kg/2 days, for 11 weeks. Representative liver histology was measured by H&E staining (FIG. 36A). An intraperitoneal glucose tolerance test (IPGTT) was conducted at the end of the study (FIG. 36B). Body weight for the mice was monitored during the treatment (FIG. 36C).

Setting [8] is: Table 3, values in nM, read-out: IC50.
[9] abbreviates: high-fat diet mice, IP injection.

As to `Cc1cc(/C=C/c2ccc3cc(N(C)C)ccc3[n+]2C)c(C)n1-c1ccccc1` [Pyrvinium, pyrvinium, reference compound], in the data set with HepG2 cells [1], the “expression of glucose 6-phosphatase (G6P)” value is recorded as “significantly suppress”, the glucose production result is given as “significantly suppress” and the “phosphorylation of AMPK” value was “increase phosphorylation”. In addition, in the data set with HepG2 cells [2], the Axin protein expression result is reported as “increased”; the “β-catenin and target gene c-Myc protein” value was “attenuation”. In data set [3], the weight gain result is on record as “decrease weight gain”.
For the compound `COc1ccccc1-n1nnc(C(=O)Nc2ccc3ccccc3n2)c1C` [YW1149, 1-(2-Methoxyphenyl)-5-methyl-N-(quinolin-2-yl)-1H-1,2,3-triazole-4-carboxamide], the “metabolism in liver S9 fraction” value in data set [4] was “Only minor metabolism was observed after one hour”. Also, in the data set on HepG2 cells [1], the “expression of glucose 6-phosphatase (G6P)” value is “significantly suppress”, the glucose production result is listed as “significantly suppress” and the “phosphorylation of AMPK” value is “increase phosphorylation”. The glucose production result with primary hepatocytes is given as “reduces glucose production”. In the data set with HepG2 cells [2], the Axin protein expression result was “increased”; the “β-catenin and target gene c-Myc protein” value is recorded as “attenuation”. Also, the IC50 in the data set with HEK293 cells is > 100000 nM. In “plasma stability”, the stability in plasma result is “stable in plasma for up to eight hours”. For the same compound, the activity at 1 µM with Wnt/β-catenin pathway turned out to be 5%. In the data set on Wnt/β-catenin pathway (FIG. 1, cellular luciferase gene reporter assay, read-out: IC50, Wnt/β-catenin pathway inhibition), the IC50 is 74 nM. In addition, in the data set on Wnt/β-catenin pathway (setting [8]), the IC50 amounted to 88 nM. The bioavailability (as a rule, dose-corrected exposure relative to a reference, in per cent) in the data set “in vivo” (C57BL/6, mouse) amounted to 75%. The intravenous half-life result in the data set “in vivo” (mouse, iv, 10 mg/kg) was “one”.
On to `CCc1ccccc1-n1ncc(C(=O)Nc2ccc3ccccc3n2)c1C` [YW2044, 1-(2-Ethylphenyl)-5-methyl-N-(quinolin-2-yl)-1H-pyrazole-4-carboxamide], for which, in the data set with SW480 cells, the Axin-2 expression entry is recorded as “noticeable effect”. Further, the growth inhibitory activity entry in [5] was “micromolar growth inhibitory activity”. Further, the colony formation result in the data set with HT-29 cells was “dose dependent reduction”. Moreover, the “mRNA expression of Wnt regulated genes (Axin-2 and/or cyclin D1)” value in the data set with SW620 cells is given as “reduce mRNA expression”.
In the case of `Cc1ccccc1-n1nnc(C(=O)Nc2ccc3ccccc3n2)c1C` [YW1128, 5-Methyl-N-(quinolin-2-yl)-1-(o-tolyl)-1H-1,2,3-triazole-4-carboxamide], the “liver histology (H&E), fatty liver disease” value in data set [6] (high-fat diet mice, IP 11 weeks) is listed as “did not exhibit any histology of fatty liver disease”. Moreover, in [6] (setting [9]), the body weight gain entry was “decrease body weight gain” and the “glucose tolerance (IPGTT)” value was “significantly improve glucose tolerance”. Moreover, in data set [6] (mice, IP, up to 40 mg/kg/2 days), the “toxicity of subchronic treatment” value is recorded as “did not cause any obvious toxicity”. The growth inhibitory activity result in data set [5] is recorded as “micromolar growth inhibitory activity”. Moreover, the CK1a in liver result in data set [7] is “did not show any significant change”. Further, the “phosphorylation of AMPKα1 at threonine 172 (p-AMPKα) in liver” value in data set [7] (vs vehicle-treated livers, 40 mg/kg) is given as “increased phosphorylation”. Moreover, in the data set with Wnt/β-catenin pathway, the activity at 1 µM is 3.7%. Moreover, the IC50 in the data set with Wnt/β-catenin pathway (setting [8]) was 7.7 nM.

Source of the values: patent US12378220B2, “WNT signaling pathway inhibitors for treatments of disease” (University of Maryland, Baltimore, priority 2016, dated 2025).
